The text below walks through data of publication PMC5526551, “New hydrazonoindolin-2-ones: Synthesis, exploration of the possible anti-proliferative mechanism of action and encapsulation into PLGA microspheres” (PLoS ONE, 2017).

Read-outs that look alike come from different tables or passages of the source.

For orientation: IC50 means the concentration needed to halve the response being measured.

The subject of one assay is IEC-6. Description: Selectivity: growth inhibition in non-tumorigenic cell line. It is filed as cell-based. Conditions: Rattus norvegicus, 72 h, maximum 25 μM, read-out: IC50 Intestine IEC-6. On the procedure:
(§1) This assessment of the growth inhibitory activity of the compounds was tested in quadruplicate at a maximum concentration of 25 μM, followed by 10 serially diluted concentrations.
(§2) A549, IEC-6, MCF-10A and 3t3 cells were harvested from 90-95% confluent cultures in 10 cm dishes, and diluted in growth media recommended by the suppliers as follows: A549 cells were cultured in RPMI-1640 medium supplemented with 5% fetal bovine serum (FBS). IEC-6 cells were obtained from ATCC and cultured in Dulbecco’s modified Eagle’s medium (DMEM) supplemented with 10% FBS and 0.1 unit/mL recombinant insulin. Swiss 3t3 cells were obtained from ATCC and cultured in DMEM supplemented with 10% FBS. […]
(§3) At the end of the treatment period, assay plates were allowed to cool to RT for 10 min prior to addition of 25 µL per well Promega CellTiterGlo reagent, followed by an additional 10 min incubation at RT. The resulting luminescence was quantitated using a Molecular Devices Spectramax Paradigm.Percent growth inhibition was calculated using equation (1). The potency of compounds was determined using the non-linear dose response algorithm (four-parameter logistic fit) with GraphPad Prism 5 software.

Assay [1] concerns HT-29, ZR-75 and A-549 cell lines. Description: Average anti-proliferative activity over the three cancer cell lines. Conditions: Homo sapiens, average of HT-29, ZR-75, A-549; for inhibition at 30 µM: read-out: Average Growth Inhibition %. In kind it is cell-based, human. The method, then:
(§4) Twenty compounds, i.e. 4a-o and 7a-e, were analyzed for cancer cell growth inhibitory activity. These studies were carried out using cells derived from human lung, colon and breast tumors (A549, HT-29 and ZR-75 cells, respectively). This initial assessment of activity tested each compound in quadruplicate at a single concentration of 30 μM, if solubility permitted.
Therefore, they were subjected to quantitative inhibitory concentration 50% (IC50) determination for their cell growth inhibitory activity towards the A549, HT-29 and ZR-75 cancer cell lines.
(§5) A549, HT-29, ZR-75 were obtained from the American Type Culture Collection (ATCC). Cells were harvested from 90-95% confluent 10 cm dishes, and diluted in growth media (RPMI-1640 supplemented with 5% fetal bovine serum). An appropriate concentration of cells were prepared to add 1,250 cells in a volume of 25 µL per well in tissue culture treated Griener 384-well microplates, then incubated overnight at 37°C. Compound 7e was diluted to a concentration of 30 µM in DMSO. Concentrated dosing solutions of twice the final concentration were prepared by dilution of the DMSO stocks 1:500 in growth media. Two-fold serial dilutions were then prepared in medium containing 0.2% DMSO to maintain a constant concentration of vehicle throughout the concentration range of the compound. Each of these was added in an equal volume (25 µL) to four wells on each cell assay plate, along with the vehicle control. The highest concentration for serial dilutions of the positive control (sunitinib) was prepared exactly as the experimental compound 7e. Cells were incubated with the compounds for a further 72 h.
(§6) The potency of compounds was determined using the non-linear dose response algorithm (four-parameter logistic fit) with GraphPad Prism 5 software.

In another assay the test system is HT-29. Description: Anti-proliferative activity, cell growth inhibition (CellTiterGlo, 72 h). Conditions: Homo sapiens; for IC50: HT-29, 72 h, 72 h; for inhibition at 30 µM: HT-29, quadruplicate, read-out: Cell growth inhibitory activity, HT-29. In kind it is cell-based, human. The method, then: as §4, §5
(§7) At the end of the treatment period, assay plates were allowed to cool to RT for 10 min prior to the addition of 25 µL per well Promega CellTiterGlo reagent, followed by additional 10 min incubation at RT. The resulting luminescence was quantitated using a Molecular Devices Spectramax Paradigm.
(§8) Percent growth inhibition was calculated as follows, where 100 represents the viability of vehicle treated control samples:
as §6
On the technique in general: Cellular ATP, detected with luciferase, serves as a proxy for viable cell number.

In the next assay the test system is ZR-75. Described as above. In kind it is cell-based, human. Conditions: Homo sapiens; for IC50: ZR75, 72 h; for inhibition at 30 µM: ZR75, quadruplicate, read-out: Cell growth inhibitory activity, ZR-75. The method, then:
as §4, §5, §7, §8, §6

For the next assay, the system named is A549. Described as above. It is filed as cell-based, human. The conditions noted are these: Homo sapiens; for IC50: A549, 72 h, read-out: IC50 A-549; for inhibition at 30 µM: A549, quadruplicate, read-out: Cell growth inhibitory activity, A-549. The method, then:
as §4, §5, §7, §8, §6

Assay [2] concerns phosphorylated tyrosine (p-Tyr) in A549 cells. Put plainly: Total cellular tyrosine phosphorylation after serum stimulation (immunofluorescent imaging). The conditions noted are these: for IC50: A549, 10 min 10% fetal bovine serum, apparent IC50 of an increase for 7e, of a decrease for sunitinib, read-out: IC50 for change in total tyrosine phosphorylation (p-Tyr) levels; for Change in p-Tyr levels: A549, serum stimulated. It is filed as cell-based, human. The method, then: Furthermore, compound 7e was analyzed for its effect on total cellular levels of phosphorylated tyrosine (p-Tyr) residues in human cancer cells. These studies were carried out using cells derived from lung adenocarcinoma (A549) and immunofluorescent imaging. The ability of the test compound 7e to affect acute serum stimulation of tyrosine phosphorylation was tested over a range of concentrations from less than 100 nM to 50 μM.
Cells were stimulated for 10 min with 10% fetal bovine serum. Phosphotyrosine levels were determined by indirect immunofluorescence followed by automated image acquisition and analysis.

The test system of the next assay is Swiss 3t3 fibroblasts. Description: Selectivity: growth inhibition in non-tumorigenic cell line. In kind it is cell-based, mice. Conditions: Mus musculus, 72 h, maximum 25 μM, read-out: IC50 Fibroblast Swiss 3t3. The method, then: as §1, §2, §3

Turning to `CCN(CC)CCNC(=O)c1c(C)[nH]c(/C=C2\C(=O)Nc3ccc(F)cc32)c1C` [Sunitinib, sunitinib, reference compound], the IC50 with IEC-6 is 4.56 µM; in assay [1], 8.11 µM; in the assay with HT-29, 10.1 µM; in the assay with ZR-75 it was 8.31 µM; with A549, 5.87 µM; in assay [2], 0.91 µM. For the same molecule, the IC50 turned out to be 0.9 µM in assay [2] (Homo sapiens, A549, 10 min) and 4.07 µM in the assay on Swiss 3t3 fibroblasts. In addition, the inhibition at 30 µM in assay [1] worked out at 78.7%; in the assay on HT-29, 59.5 ± 2.3%; in the assay on ZR-75, 90.7 ± 4.5%; in the assay with A549 it was 85.7 ± 2.7%. Besides, the “Change in p-Tyr levels” value in assay [2] is “modest dose-dependent decrease”.

Turning to `O=C1Nc2ccc(Br)cc2C1=NN=C1C(=O)N(Cc2ccccc2)c2ccccc21` [Compound 7e, 1-Benzyl-3-((5-bromo-2-oxoindolin-3-ylidene)hydrazono)indolin-2-one], the IC50 in the assay on IEC-6 worked out at 3.72 µM; in assay [1], 2.37 µM; in the assay with HT-29, 2.49 µM; in the assay with ZR-75 it was 1.79 µM; with A549 it was 2.83 µM; in assay [2] (Homo sapiens, A549, 10 min), 3.8 µM. Moreover, the IC50 with Swiss 3t3 fibroblasts came to 2.56 µM. The inhibition at 30 µM in assay [1] stood at 96.3%; in the assay on HT-29, 95.7 ± 4.2%; in the assay on ZR-75 it was 96.1 ± 4.6%; with A549, 97.1 ± 3.3%. Moreover, in assay [2], the “Change in p-Tyr levels” value is given as “nearly two-fold”.
